Experimental data reported in ChEMBL document CHEMBL1201862, “PubChem BioAssay data set” (2004).
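All cell lines were grown in 96-well plates and treated with compound for 48 hours. Here, GI50 denotes the concentration required for 50% inhibition of growth.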 The source made the active and inactive calls. Rule as the data show it: active = GI50 up to about 1.1 µM and inactive = higher.

How the values were obtained:
Test in all cases: NCI-60 cell line screen, 48 h
[1] = system: 786-0
[2] = system: A549
[3] = system: ACHN
[4] = system: CAKI-1
[5] = system: CCRF-CEM
[6] = system: COLO 205
[7] = system: DU-145
[8] = system: EKVX
[9] = system: HCC 2998
[10] = system: HCT-116
[11] = system: HCT-15
[12] = system: HOP-62
[13] = system: HT-29
[14] = system: Hs-578T
[15] = system: IGROV-1
[16] = system: K562
[17] = system: KM12
[18] = system: LOX IMVI
[19] = system: M14
[20] = system: MCF7
[21] = system: MDA-MB-435
[22] = system: MDA-N
[23] = system: MOLT-4
[24] = system: NCI-H23
[25] = system: NCI-H460
[26] = system: NCI-H522
[27] = system: NCI/ADR-RES
[28] = system: OVCAR-3
[29] = system: OVCAR-5
[30] = system: OVCAR-8
[31] = system: PC-3
[32] = system: RPMI-8226
[33] = system: SF-268
[34] = system: SF-295
[35] = system: SF-539
[36] = system: SK-MEL-28
[37] = system: SK-MEL-2
[38] = system: SK-MEL-5
[39] = system: SN12C
[40] = system: SNB-19
[41] = system: SR
[42] = system: SW-620
[43] = system: T47D
[44] = system: TK-10
[45] = system: UACC-257
[46] = system: UACC-62
[47] = system: UO-31
[48] = system: A498
[49] = system: HL-60
[50] = system: HOP-92
[51] = system: MDA-MB-231
[52] = system: Malme-3M
[53] = system: NCI-H226
[54] = system: OVCAR-4
[55] = system: RXF 393
[56] = system: SK-OV-3
[57] = system: SNB-75
[58] = system: U-251

For `COc1ccc(C2c3cc4c(cc3OC(N3CCOCC3)C2C)OCO4)c(OC)c1OC` (stereo unspecified), which GI50 [1] is on record?
The GI50 was 17.1 µM (inactive).

What about the GI50 [2] of the same compound?
The GI50 was 22.9 µM (inactive).

And the GI50 [3]?
The GI50 was 16.1 µM (inactive).

What about the GI50 [4] of the same compound?
Its GI50 is 2.51 µM (inactive).

What about the GI50 [5] of the same compound?
Its GI50 is 13 µM (inactive).

And the GI50 [6]?
The GI50 was 14.6 µM (inactive).

What about the GI50 [7] of the same compound?
The GI50 was > 10 µM (inactive).

What about the GI50 [8] of the same compound?
Its GI50 is 24.2 µM (inactive).

And the GI50 [9]?
The GI50 was 10.8 µM (inactive).

And the GI50 [10]?
Its GI50 is 10.3 µM (inactive).

And the GI50 [11]?
The GI50 was 6.93 µM.

What about the GI50 [12] of the same compound?
The GI50 was 26.9 µM (inactive).

What about the GI50 [13] of the same compound?
Its GI50 is 14 µM (inactive).

And the GI50 [14]?
Its GI50 is 2.88 µM (inactive).

And the GI50 [15]?
The GI50 was 15.1 µM (inactive).

What about the GI50 [16] of the same compound?
The GI50 was 4.34 µM (inactive).

And the GI50 [17]?
Its GI50 is 5.55 µM (inactive).

What about the GI50 [18] of the same compound?
Its GI50 is 14.5 µM (inactive).

And the GI50 [19]?
Its GI50 is 8.22 µM (inactive).

What about the GI50 [20] of the same compound?
Its GI50 is 10.9 µM (inactive).

What about the GI50 [21] of the same compound?
Its GI50 is 2.51 µM (inactive).

What about the GI50 [22] of the same compound?
The GI50 was 2.45 µM (inactive).

What about the GI50 [23] of the same compound?
Its GI50 is 10.6 µM (inactive).

What about the GI50 [24] of the same compound?
The GI50 was 33.7 µM (inactive).

And the GI50 [25]?
Its GI50 is 20.5 µM (inactive).

What about the GI50 [26] of the same compound?
Its GI50 is 6.89 µM (inactive).

And the GI50 [27]?
Its GI50 is 12.1 µM (inactive).

What about the GI50 [28] of the same compound?
The GI50 was 11 µM (inactive).

And the GI50 [29]?
Its GI50 is 17.1 µM (inactive).

And the GI50 [30]?
Its GI50 is 24.7 µM (inactive).

What about the GI50 [31] of the same compound?
The GI50 was 13.6 µM (inactive).

What about the GI50 [32] of the same compound?
Its GI50 is 13.2 µM (inactive).

What about the GI50 [33] of the same compound?
The GI50 was 17.4 µM (inactive).

And the GI50 [34]?
The GI50 was 5.97 µM (inactive).

And the GI50 [35]?
The GI50 was 12.6 µM (inactive).

And the GI50 [36]?
Its GI50 is 14.2 µM (inactive).

What about the GI50 [37] of the same compound?
The GI50 was 12.2 µM (inactive).

What about the GI50 [38] of the same compound?
The GI50 was 10.1 µM (inactive).

And the GI50 [39]?
The GI50 was 26.3 µM (inactive).

And the GI50 [40]?
The GI50 was 10.7 µM (inactive).

What about the GI50 [41] of the same compound?
Its GI50 is 9.06 µM (inactive).

And the GI50 [42]?
The GI50 was 11.1 µM (inactive).

What about the GI50 [43] of the same compound?
Its GI50 is 20.6 µM (inactive).

What about the GI50 [44] of the same compound?
Its GI50 is 15.5 µM (inactive).

What about the GI50 [45] of the same compound?
The GI50 was 15.9 µM (inactive).

What about the GI50 [46] of the same compound?
The GI50 was 13.5 µM (inactive).

And the GI50 [47]?
Its GI50 is 6.81 µM (inactive).

For `NCc1ccc(-c2ccc(-c3ccc(-c4ccc(CN)s4)s3)s2)s1`, which GI50 [1] is on record?
The GI50 was > 100 µM (inactive).

And the GI50 [48]?
Its GI50 is > 100 µM (inactive).

What about the GI50 [2] of the same compound?
Its GI50 is > 100 µM (inactive).

And the GI50 [3]?
The GI50 was > 100 µM (inactive).

And the GI50 [4]?
Its GI50 is > 100 µM (inactive).

What about the GI50 [5] of the same compound?
Its GI50 is > 100 µM (inactive).

And the GI50 [6]?
Its GI50 is > 100 µM (inactive).

And the GI50 [7]?
The GI50 was > 100 µM (inactive).

What about the GI50 [8] of the same compound?
The GI50 was > 100 µM (inactive).

What about the GI50 [9] of the same compound?
Its GI50 is > 100 µM (inactive).

And the GI50 [10]?
The GI50 was > 100 µM (inactive).

And the GI50 [11]?
Its GI50 is greater than 100 µM.

What about the GI50 [49] of the same compound?
The GI50 was > 100 µM (inactive).

What about the GI50 [12] of the same compound?
Its GI50 is > 100 µM (inactive).

And the GI50 [50]?
Its GI50 is > 100 µM (inactive).

What about the GI50 [13] of the same compound?
The GI50 was > 100 µM (inactive).

And the GI50 [15]?
The GI50 was > 100 µM (inactive).

And the GI50 [16]?
The GI50 was > 100 µM (inactive).

What about the GI50 [17] of the same compound?
Its GI50 is > 100 µM (inactive).

What about the GI50 [18] of the same compound?
The GI50 was > 100 µM (inactive).

What about the GI50 [19] of the same compound?
Its GI50 is > 100 µM (inactive).

And the GI50 [20]?
The GI50 was > 100 µM (inactive).

And the GI50 [51]?
Its GI50 is > 100 µM (inactive).

What about the GI50 [21] of the same compound?
Its GI50 is > 100 µM (inactive).

What about the GI50 [22] of the same compound?
The GI50 was > 100 µM (inactive).

What about the GI50 [23] of the same compound?
The GI50 was > 100 µM (inactive).

What about the GI50 [52] of the same compound?
The GI50 was > 100 µM (inactive).

What about the GI50 [53] of the same compound?
Its GI50 is > 100 µM (inactive).

And the GI50 [24]?
The GI50 was > 100 µM (inactive).

What about the GI50 [26] of the same compound?
The GI50 was > 100 µM (inactive).

And the GI50 [27]?
Its GI50 is > 100 µM (inactive).

And the GI50 [28]?
Its GI50 is > 100 µM (inactive).

What about the GI50 [54] of the same compound?
Its GI50 is > 100 µM (inactive).

What about the GI50 [29] of the same compound?
The GI50 was > 100 µM (inactive).

And the GI50 [30]?
The GI50 was > 100 µM (inactive).

What about the GI50 [31] of the same compound?
The GI50 was > 100 µM (inactive).

What about the GI50 [32] of the same compound?
The GI50 was > 100 µM (inactive).

What about the GI50 [55] of the same compound?
The GI50 was > 100 µM (inactive).

And the GI50 [34]?
The GI50 was > 100 µM (inactive).

And the GI50 [35]?
Its GI50 is > 100 µM (inactive).

What about the GI50 [36] of the same compound?
The GI50 was > 100 µM (inactive).

What about the GI50 [37] of the same compound?
The GI50 was > 100 µM (inactive).

What about the GI50 [38] of the same compound?
Its GI50 is > 100 µM (inactive).

And the GI50 [56]?
Its GI50 is > 100 µM (inactive).

And the GI50 [39]?
The GI50 was > 100 µM (inactive).

And the GI50 [40]?
The GI50 was > 100 µM (inactive).

What about the GI50 [57] of the same compound?
Its GI50 is > 100 µM (inactive).

What about the GI50 [42] of the same compound?
The GI50 was > 100 µM (inactive).

What about the GI50 [43] of the same compound?
The GI50 was > 100 µM (inactive).

What about the GI50 [44] of the same compound?
The GI50 was > 100 µM (inactive).

What about the GI50 [58] of the same compound?
The GI50 was > 100 µM (inactive).

And the GI50 [45]?
Its GI50 is > 100 µM (inactive).

And the GI50 [46]?
The GI50 was > 100 µM (inactive).

What about the GI50 [47] of the same compound?
Its GI50 is > 100 µM (inactive).
